# In patent US7018989B2, “Chemical compounds” (University College Cardiff Consultants, LTD, priority 1995, dated 2006):
# Read-outs that look alike come from different tables or passages of the source.
# How the values were obtained:
# HIV-2 [1] = assay: Inhibition of HIV-2 in CEM/TK- cells; format: cell-based
# Procedure: (§1) Cells were infected with HIV-1 as previously described [Balzarini et al. AIDS (1991), 5, 21–28]. Briefly, 5×10^5 cells per milliliter were infected with HIV-1 or HIV-2 at 100 CCID50 (50% cell culture infective dose) per milliliter of cell suspension. Then 100 μL of the infected cell suspension was transferred to microtiter plate wells and mixed with 100 μL of the appropriate dilutions of the test compounds. After 4 days giant cell formation was recorded microscopically in the HIV-infected cell cultures [CEM], and after 5 days the number of viable cells was determined by trypan blue staining of the HIV-infected cell cultures [MT4].
# (§2) The data columns are, in order: • HIV1 MT4: EC50 in μM for inhibition of HIV-1 in MT4 cells. • HIV2 MT4: EC50 in μM for inhibition of HIV-2 in MT4 cells. • CC50 MT4: CC50 in μM for toxicity to MT-4 cells. • HIV1 CEM: EC50 in μM for inhibition of HIV-1 in CEM cells. • HIV2 CEM: EC50 in μM for inhibition of HIV-2 in CEM cells. • HIV2 CEM-TK-: EC50 in μM for inhibition of HIV-2 in CEM/TK^− cells. • CC50 CEM: CC50 in μM for toxicity to CEM cells. • EC50 MSV: EC50 in μM for inhibition of MSV • MCC MSV: Minimum cytotoxic concentration in MSV assay
# HIV-2 [2] = assay: Inhibition of HIV-2 in CEM cells (giant cell formation); format: cell-based; conditions: read-out: HIV2 CEM: EC50 for inhibition of HIV-2 in CEM cells
# Procedure: as §1, §2
# CEM cells = assay: Toxicity to CEM cells; format: cell-based, human
# Procedure: as §1, §2
# HIV-1 = assay: microbe, parasite or virus in culture; conditions: read-out: HIV1 CEM: EC50 for inhibition of HIV-1 in CEM cells
# Procedure: as §1, §2
# [3] = Table 6, mean of two or more repeat experiments, read-out: HIV2 CEM-TK-: EC50 for inhibition of HIV-2 in CEM/TK^− cells
# [4] = Table 6, mean of two or more repeat experiments
# [5] = CEM/TK- cells, HIV-2, read-out: HIV2 CEM-TK-: EC50 for inhibition of HIV-2 in CEM/TK- cells
Compound,EC50 (HIV-2 [1]; [3]),EC50 (HIV-2 [2]; [4]),CC50 (CEM cells; [4]),EC50 (HIV-1; [4]),EC50 (HIV-2 [1]; [5]),"EC50 (HIV-2 [2]; CEM cells, HIV-2)","EC50 (HIV-1; CEM cells, HIV-1)",CC50 (CEM cells; CEM cells)
CCCCCCOP(=O)(OCCCCCC)OCC1C=CC(n2cc(C)c(=O)[nH]c2=O)O1 (stereo not drawn) [Compound 321],> 42 µM,> 42 µM,36 µM,> 42 µM,,,,
Cc1cn([C@H]2C=C[C@@H](COP(=O)(O)O)O2)c(=O)[nH]c1=O [Compound 775],33 µM,0.95 µM,174 µM,0.8 µM,,,,
CCCCCCO[PH](=O)OCC1C=CC(n2cc(C)c(=O)[nH]c2=O)O1 (stereo not drawn) [Compound 786],30 µM,0.5 µM,150 µM,0.6 µM,,,,
COCCOCCO[PH](=O)OCC1C=CC(n2cc(C)c(=O)[nH]c2=O)O1 (stereo not drawn) [Compound 787],45 µM,0.95 µM,144 µM,0.65 µM,,,,
CCO[PH](=O)OCC1C=CC(n2cc(C)c(=O)[nH]c2=O)O1 (stereo not drawn) [Compound 788],30 µM,0.6 µM,115 µM,0.65 µM,,,,
CCCCCCCCCCO[PH](=O)OCC1C=CC(n2cc(C)c(=O)[nH]c2=O)O1 (stereo not drawn) [Compound 789],40 µM,0.65 µM,64 µM,,,,,
CCCCO[PH](=O)OCC1C=CC(n2cc(C)c(=O)[nH]c2=O)O1 (stereo not drawn) [Compound 790],30 µM,0.9 µM,177 µM,0.65 µM,,,,
CCCCCCCCO[PH](=O)OCC1C=CC(n2cc(C)c(=O)[nH]c2=O)O1 (stereo not drawn) [Compound 791],23 µM,0.6 µM,90 µM,0.4 µM,,,,
CO[PH](=O)OCC1C=CC(n2cc(C)c(=O)[nH]c2=O)O1 (stereo not drawn) [Compound 817],20 µM,0.55 µM,146 µM,0.7 µM,,,,
CCCCCCCCCCCCNP(=O)(OCC1C=CC(n2cc(C)c(=O)[nH]c2=O)O1)Oc1ccccc1 (stereo not drawn) [Compound 828],,> 10 µM,14 µM,> 10 µM,,,,
CCCCCCCCNP(=O)(OCC1C=CC(n2cc(C)c(=O)[nH]c2=O)O1)Oc1ccccc1 (stereo not drawn) [Compound 829],,≥ 10 µM,23 µM,> 10 µM,,,,
CCCCNP(=O)(OCC1C=CC(n2cc(C)c(=O)[nH]c2=O)O1)Oc1ccccc1 (stereo not drawn) [Compound 840],125 µM,100 µM,> 250 µM,140 µM,,,,
CC(NP(=O)(OCC1C=CC(n2ccc(=O)[nH]c2=O)O1)Oc1ccccc1)C(=O)OCc1ccccc1 (stereo not drawn) [Compound 849],10 µM,15 µM,115 µM,23 µM,,,,
Cc1cn(C2C=CC(COP(=O)(O)Oc3ccccc3)O2)c(=O)[nH]c1=O (stereo not drawn) [Compound 853],23 µM,0.7 µM,153 µM,0.65 µM,,,,
CCCNP(=O)(OCC1C=CC(n2cc(C)c(=O)[nH]c2=O)O1)Oc1ccccc1 (stereo not drawn) [Compound 858],> 250 µM,> 250 µM,> 250 µM,> 250 µM,,,,
CCCCCCNP(=O)(OCC1C=CC(n2cc(C)c(=O)[nH]c2=O)O1)Oc1ccccc1 (stereo not drawn) [Compound 859],> 50 µM,> 50 µM,145 µM,> 50 µM,,,,
Cc1cn(C2C=CC(COP(=O)(OCCC#N)Oc3ccccc3)O2)c(=O)[nH]c1=O (stereo not drawn) [Compound 861],17.5 µM,0.95 µM,≥ 250 µM,1.2 µM,,,,

Compound,EC50 (HIV-2 [1]; [3]),EC50 (HIV-2 [2]; [4]),CC50 (CEM cells; [4]),EC50 (HIV-1; [4]),EC50 (HIV-2 [1]; [5]),"EC50 (HIV-2 [2]; CEM cells, HIV-2)","EC50 (HIV-1; CEM cells, HIV-1)",CC50 (CEM cells; CEM cells)
COC(=O)C1CCCN1P(=O)(OCC1C=CC(n2cc(C)c(=O)[nH]c2=O)O1)Oc1ccccc1 (stereo not drawn) [Compound 879],> 10 µM,> 10 µM,42.5 µM,> 10 µM,,,,
Cc1cn(C2C=CC(COP(=O)(Oc3ccccc3)Oc3ccccc3)O2)c(=O)[nH]c1=O (stereo not drawn) [Compound 880],75 µM,25 µM,≥ 250 µM,,,,,
"Cc1cn([C@H]2C=C[C@@H](COP(=O)(O)NCC(=O)O)O2)c(=O)[nH]c1=O [Compound 1163, 2′,3′-dideoxy-2′,3′-didehydrothymidine 5′-(glycinyl phosphate)]",130 µM,5 µM,> 250 µM,2 µM,,,,
[N-]=[N+]=NC1CC(n2ccc(=O)[nH]c2=O)OC1CO (stereo not drawn) [Cpd 569],,,,,> 400 µM,> 400 µM,> 400 µM,
COC(=O)C(C)NP(=O)(OCC1OC(n2ccc(=O)[nH]c2=O)CC1N=[N+]=[N-])Oc1ccccc1 (stereo not drawn) [Cpd 571],,,,,117 µM,> 202 µM,> 202 µM,
CCCCCCNP(=O)(OCC1OC(n2cc(C)c(=O)[nH]c2=O)CC1N=[N+]=[N-])Oc1ccccc1 (stereo not drawn) [Cpd 657],,,,,> 18 µM,> 40 µM,> 40 µM,
CCCCNP(=O)(OCC1OC(n2cc(C)c(=O)[nH]c2=O)CC1N=[N+]=[N-])Oc1ccccc1 (stereo not drawn) [Cpd 659],,,,,> 42 µM,> 42 µM,> 42 µM,
CCCCCCCCCCCCNP(=O)(OCC1OC(n2cc(C)c(=O)[nH]c2=O)CC1N=[N+]=[N-])Oc1ccccc1 (stereo not drawn) [Cpd 661],,,,,> 7 µM,> 7 µM,> 7 µM,
COC(=O)C(C)NP(=O)(OC)OCC1OC(n2cc(C)c(=O)[nH]c2=O)CC1N=[N+]=[N-] (stereo not drawn) [Cpd 739],,,,,> 250 µM,18 µM,10 µM,> 250 µM
CCCCCCCCn1c(=O)c(C)cn(C2CC(N=[N+]=[N-])C(COP(=O)(NC(C)C(=O)OC)Oc3ccccc3)O2)c1=O (stereo not drawn) [Cpd 774],,,,,,> 10 µM,> 10 µM,15 µM
COC(=O)C(C)NP(=O)(OCC1OC(n2cc(C)c(=O)[nH]c2=O)CC1N=[N+]=[N-])Oc1ccc(Br)cc1Br (stereo not drawn) [Cpd 777],,,,,0.19 µM,0.55 µM,0.5 µM,55 µM
COC(=O)C(C)NP(=O)(OCC1OC(n2cc(C)c(=O)[nH]c2=O)CC1N=[N+]=[N-])Oc1c(F)c(F)c(F)c(F)c1F (stereo not drawn) [Cpd 780],,,,,100 µM,33 µM,23 µM,106 µM
Cc1cn(C2CC(N=[N+]=[N-])C(COP(=O)(OCCC#N)Oc3ccccc3)O2)c(=O)[nH]c1=O (stereo not drawn) [Cpd 846],,,,,> 250 µM,14 µM,13 µM,> 250 µM
Cc1cn(C2CC(N=[N+]=[N-])C(COP(=O)(OCCC#N)OCC(F)(F)F)O2)c(=O)[nH]c1=O (stereo not drawn) [Cpd 847],,,,,> 250 µM,9 µM,12 µM,> 250 µM
Cc1cn(C2CC(N=[N+]=[N-])C(COP(=O)(O)OCC(F)(F)F)O2)c(=O)[nH]c1=O (stereo not drawn) [Cpd 855],,,,,> 250 µM,17.5 µM,17.5 µM,> 250 µM
CCCCCCOP(=O)(OCCC#N)OCC1OC(n2cc(C)c(=O)[nH]c2=O)CC1N=[N+]=[N-] (stereo not drawn) [Cpd 856],,,,,> 250 µM,25 µM,13 µM,> 250 µM
CCCCCCOP(=O)(O)OCC1OC(n2cc(C)c(=O)[nH]c2=O)CC1N=[N+]=[N-] (stereo not drawn) [Cpd 857],,,,,> 250 µM,10 µM,5 µM,> 250 µM
